Experimental data taken from ChEMBL document CHEMBL5360552, “Potential RNA-dependent RNA polymerase (RdRp) inhibitors as prospective drug candidates for SARS-CoV-2” (Eur J Med Chem, 2023).

How the values were obtained:
SARS-CoV-2 [1] = test: Antiviral activity against SARS-CoV-2 infected in african green monkey Vero E6 cells assessed as reduction in viral replication; assay type: functional, organism-based; details: Severe acute respiratory syndrome coronavirus 2, Vero C1008
[2] = target: Replicase polyprotein 1ab (Severe acute respiratory syndrome coronavirus 2) (UniProt P0DTD1); test: Inhibition of SARS-CoV-2 RdRp transfected in HEK293T cells at 10 microM incubated for 24 hrs by Gluc-Activity assay relative to control; assay type: cell-based
[3] = Cytotoxicity against HEK293T cells assessed as cell growth inhibition incubated for 24 hrs by CCK-8 assay; assay type: toxicity, cell-based, HEK-293T; details: human
[4] = Therapeutic index, ratio of CC50 for HEK293T cells to EC50 for inhibition of SARS-CoV-2 RdRp; assay type: toxicity; details: human, read-out: TI
SARS-CoV-2 [5] = test: Antiviral activity against wild type SARS-CoV-2 infected in human Calu-3 cells of organoid assessed as intracellular viral RNA level measured after 48 hrs by qRT-PCR analysis; assay type: functional, organism-based; details: Severe acute respiratory syndrome coronavirus 2, Calu-3, 48 h
[6] = Cytotoxicity against african green monkey Vero E6 cells assessed as inhibition of cell growth by CCK-8 assay; assay type: toxicity, cell-based, Vero C1008; details: chlorocebus sabaeus
[7] = Selectivity index, ratio of CC50 for african green monkey Vero E6 cells to EC50 for SARS-CoV-2 infected in African Green monkey Vero E6 cells; assay type: toxicity, cell-based, Vero C1008; details: read-out: Selectivity Index
SARS-CoV-2 [8] = test: Antiviral activity against SARS-CoV-2 infected in human Calu-3 cells pretreated for 1 hrs followed by viral infection for 2 days post treatment by qRT-PCR; assay type: functional, organism-based; details: Severe acute respiratory syndrome coronavirus 2, Calu-3
SARS-CoV-2 [9] = test: Antiviral activity against SARS-CoV-2 infected in african green monkey Vero E6 cells assessed as reduction in viral yield at 20 uM incubated for 48 hrs post infection by qRT-PCR relative to control; assay type: functional, Severe acute respiratory syndrome coronavirus 2; set-up: scale not given: the % may be the effect or the level left
[10] = Cytotoxicity against human Calu-3 cells assessed as inhibition of cell growth incubated for 4 days by MTS assay; assay type: toxicity, cell-based; details: time 4 day
[11] = Cytotoxicity against african green monkey Vero E6 cells assessed as inhibition of cell growth incubated for 4 days by MTS assay; assay type: toxicity, cell-based, Vero C1008; details: chlorocebus sabaeus, time 4 day
SARS-CoV-2 [12] = test: Antiviral activity against SARS-CoV-2 infected in african green monkey Vero E6 cells pretreated for 1 hrs followed by viral infection for 2 days post treatment by qRT-PCR; assay type: functional, organism-based, Severe acute respiratory syndrome coronavirus 2
SARS-CoV-2 [13] = test: Antiviral activity against SARS-CoV-2 infected in human Calu-3 cells assessed as reduction in viral yield incubated for 48 hrs by RT-PCR; assay type: functional, organism-based; details: Severe acute respiratory syndrome coronavirus 2, Calu-3, 48 h
in vitro = details: human, Calu-3 cells
Description: Selectivity index, ratio of CC50 for human Calu-3 cells to EC50 for SARS-CoV-2 infected in human Calu-3

[14] = Cytotoxicity against human Calu-3 cells assessed as cell growth inhibition incubated for 4 hrs by XTT assay; assay type: toxicity, cell-based
[15] = Selectivity index, ratio of CC50 for human Caco-2 cells to EC90 for SARS-CoV-2 infected in human Caco-2 cells; assay type: toxicity, cell-based; details: read-out: Selectivity Index
[16] = Selectivity index, ratio of CC50 for african green monkey Vero 76 cells to EC90 for SARS-CoV-2 infected in African Green monkey Vero 76 cells assessed as reduction in cytopathic effect; assay type: toxicity, cell-based; details: read-out: Selectivity Index
SARS-CoV-2 [17] = test: Antiviral activity against SARS-CoV-2 WA1/2020 infected in human Caco-2 cells preincubated for 24 hrs followed by viral infection and measured after 3 day post infection by viral yield reduction assay; assay type: functional; details: Severe acute respiratory syndrome coronavirus 2, WA1/2020, Caco-2, 96 h; time 4 day
SARS-CoV-2 [18] = test: Antiviral activity against SARS-CoV-2 WA1/2020 infected in human Calu-3 cells preincubated for 2 hrs followed by viral infection and measured after 48 hrs by microscopy analysis; assay type: functional, organism-based; details: Severe acute respiratory syndrome coronavirus 2, WA1/2020, Calu-3
[19] = Selectivity index, ratio of CC50 for african green monkey Vero 76 cells to EC90 for SARS-CoV-2 infected in African Green monkey Vero 76 cells; assay type: toxicity, cell-based; details: read-out: Selectivity Index
[20] = Selectivity index, ratio of CC50 for human Calu-3 cells to EC90 for SARS-CoV-2 infected in human Calu-3 cells; assay type: toxicity, cell-based; details: read-out: Selectivity Index
SARS-CoV-2 [21] = test: Antiviral activity against SARS-CoV-2 WA1/2020 infected in african green monkey Vero E6 cells preincubated for 24 hrs followed by viral infection and measured after 5 day post infection by cytopathic effect assay; assay type: functional; details: Severe acute respiratory syndrome coronavirus 2, WA1/2020, Vero C1008, 144 h; time 6 day
[22] = Cytotoxicity against human Calu-3 cells assessed as cell growth inhibition by neutral red cytopathic assay; assay type: toxicity, cell-based
SARS-CoV-2 [23] = test: Antiviral activity against SARS-CoV-2 WA1/2020 infected in african green monkey Vero 76 cells preincubated for 24 hrs followed by viral infection and measured after 3 day post infection by viral yield reduction assay; assay type: functional; details: Severe acute respiratory syndrome coronavirus 2, WA1/2020, Vero 76, 96 h; time 4 day
[24] = Cytotoxicity against african green monkey Vero 76 cells assessed as cell growth inhibition by neutral red cytopathic assay; assay type: toxicity, cell-based; details: chlorocebus sabaeus
[25] = Cytotoxicity against human Caco-2 cells assessed as cell growth inhibition by neutral red cytopathic assay; assay type: toxicity, cell-based

COc1ccc(-c2cc(=O)c3c(O)cc(O)c(-c4cc(-c5cc(=O)c6c(O)cc(O)cc6o5)ccc4OC)c3o2)cc1 [ISOGINKGETIN]
IC50 (SARS-CoV-2 [1]): 22.8 µM

CC(C)(C)OC(=O)N[C@@H]1CCN(c2ccc3cccc(OCC(=O)NCc4ccccc4)c3n2)C1
inhibition [2]: 74.9% | CC50 at 24 h [3]: 79.4 µM | selectivity ratio [4]: 20.3

CC(C)(C)OC(=O)N[C@H]1CCN(c2ccc3cccc(OCC(=O)NCc4ccccc4)c3n2)C1
inhibition [2]: 92.8% | CC50 at 24 h [3]: 72.4 µM | selectivity ratio [4]: 34.8

CCN(CC)CCCC(C)Nc1ccnc2cc(Cl)ccc12 (stereo not given) [CHLOROQUINE]
IC50 (SARS-CoV-2 [1]): 11.6 µM

CC(C)C(=O)OC[C@H]1O[C@@H](n2cc/c(=N\O)[nH]c2=O)[C@H](O)[C@@H]1O [MOLNUPIRAVIR]
IC50 (SARS-CoV-2 [5]): 1.97 µM

NC(=O)c1nc(F)c[nH]c1=O
CC50 [6]: > 400 µM | selectivity ratio [7]: 6.46

Cc1cccc(C)c1OCC(=O)N[C@@H](Cc1ccccc1)[C@@H](O)C[C@H](Cc1ccccc1)NC(=O)[C@H](C(C)C)N1CCCNC1=O [LOPINAVIR]
IC50 (SARS-CoV-2 [1]): 11.5 µM

O=c1cc(-c2ccccc2)oc2cc(O)c(O)c(O)c12 [BAICALEIN]
EC50 (SARS-CoV-2 [8]): 1.2 µM | Activity (SARS-CoV-2 [9]): 99.8% | CC50 at 96 h [10]: 91 µM | CC50 at 96 h [11]: 8.6 µM | EC90 (SARS-CoV-2 [12]; Severe acute respiratory syndrome coronavirus 2, Vero C1008, 48 h, time 2 day): 7.6 µM

CCC(CC)COC(=O)[C@H](C)N[P@](=O)(OC[C@H]1O[C@@](C#N)(c2ccc3c(N)ncnn23)[C@H](O)[C@@H]1O)Oc1ccccc1
CC50 [6]: > 100 µM | IC50 (SARS-CoV-2 [1]): 7.18 µM

CC(C)(C)OC(=O)N1CCN(c2ccc3cccc(OCC(=O)NCc4ccccc4)c3n2)CC1
inhibition [2]: 95% | CC50 at 24 h [3]: 70.8 µM | selectivity ratio [4]: 65.5

NC(=O)c1ncn([C@@H]2O[C@H](CO)[C@@H](O)[C@H]2O)n1 [RIBAVIRIN]
EC50 (SARS-CoV-2 [13]): 7.1 µM | selectivity ratio (in vitro): 16 | CC50 at 4 h [14]: 160 µM

COC(=O)N[C@H](C(=O)N1CCC[C@H]1c1ncc(-c2ccc(-c3ccc(-c4cnc([C@@H]5CCCN5C(=O)[C@@H](NC(=O)OC)C(C)C)[nH]4)cc3)cc2)[nH]1)C(C)C
EC50 (SARS-CoV-2 [13]): 1.1 µM | CC50 at 4 h [14]: 38 µM

O=C(O)[C@H]1O[C@@H](Oc2cc3oc(-c4ccccc4)cc(=O)c3c(O)c2O)[C@H](O)[C@@H](O)[C@@H]1O [BAICALIN]
EC50 (SARS-CoV-2 [8]): 8 µM | Activity (SARS-CoV-2 [9]): 98% | CC50 at 96 h [10]: > 100 µM | CC50 at 96 h [11]: > 100 µM | EC50 (SARS-CoV-2 [12]; Severe acute respiratory syndrome coronavirus 2, Vero C1008): 9 µM

Nc1ncnc2c([C@@H]3N[C@H](CO)[C@@H](O)[C@H]3O)c[nH]c12
selectivity ratio [15]: 5.8 | selectivity ratio [16]: 5.8 | EC90 (SARS-CoV-2 [17]): 14.2 µM | EC50 (SARS-CoV-2 [18]): 14.2 µM | selectivity ratio [19]: > 27 | selectivity ratio [20]: > 3.5 | EC90 (SARS-CoV-2 [21]): 50.3 µM | CC50 [22]: > 50 µM | EC90 (SARS-CoV-2 [23]): 10.9 µM | CC50 [24]: > 296 µM | CC50 [25]: 82.8 µM

CC(C)OC(=O)[C@H](C)N[P@](=O)(OC[C@H]1O[C@@H](n2ccc(=O)[nH]c2=O)[C@](C)(F)[C@@H]1O)Oc1ccccc1 [SOFOSBUVIR]
EC50 (SARS-CoV-2 [13]): 7.3 µM | CC50 at 4 h [14]: 512 µM
